{"source": "patent US9066922B2", "about": "“Pharmaceutical composition for the treatment or prevention of diseases involving obesity, diabetes, metabolic syndrome, neuro-degenerative diseases and mitochondria dysfunction diseases” (MD BIOALPHA CO., LTD., priority 2005, dated 2015)", "key": {"[1]": {"test_system": "diet-induced obesity (DIO) C57BL/6 mice", "experiment": "Body weight, dietary intake, fat, blood parameters and histology in diet-induced obesity (DIO) C57BL/6 mice", "assay_type": "in vivo", "excerpt": "FIGS. 16A through 16C show whole laparotomized states of animals after administration of β-lapachone to DIO C57BL/6 mice for 56 days and results of oil red O staining and EM examination on fat accumulation in liver tissues. […] In order to confirm improvement in condition of fatty liver in FIG. 16, accumulated fat in the liver was stained using oil red O staining and as a result, it was confirmed that fat has diminished by 90% or more, as compared to a control group.\nReferring to FIG. 17, after daily administration of β-lapachone to DIO C57BL/6 mice at a dose of 50 mg/kg via an oral route, animals were laparotomized on day 56 of β-lapachone administration and perilipin staining was performed on gonadal adipose tissues.\nReferring to FIG. 19, after daily administration of β-lapachone to DIO C57BL/6 mice at a dose of 50 mg/kg via an oral route, H&E staining of brown adipose tissues was performed on day 56 of administration."}, "[2]": {"test_system": "leptin receptor-deficient (ob/ob) mice", "experiment": "Changes in leptin receptor-deficient (ob/ob) mice by administration of β-lapachone", "assay_type": "in vivo", "protocol": "(§1) This is because fat degradation is facilitated and therefore sufficient amounts of energy are generated, despite similar dietary intake. […] In order to examine fat accumulation in the liver tissue, animals were laparotomized 56 days after administration of β-lapachone, and H&E staining (FIG. 21C) and EM examination (FIG. 21D) were performed on the liver tissue."}, "[3]": {"test_system": "leptin-deficient (ob/ob) mice", "experiment": "Changes in leptin receptor-deficient (ob/ob) mice by administration of β-lapachone", "assay_type": "in vivo", "details": "56 days, vs control group", "protocol": "as §1"}, "[4]": {"test_system": "C57BL/6JL Lep ob/Lep ob mice", "experiment": "Blood lipid, glucose and enzyme levels in obese mice (ob/ob)", "assay_type": "in vivo", "design": "unit not given here", "details": "100 mg/kg for 26 days", "excerpt": "10-week-old C57BL/6JL Lep ob/Lep ob male mice having obesity characteristics and predisposition were purchased from Daehan Biolink Co., Ltd. (Chungchongbuk-do, Korea). Animals were raised in a breeding room maintained at a temperature of 23 C, 55% humidity, illumination of 300 to 500 lux, a 12-h light/dark (L/D) cycle, and ventilation of 10 to 18 times/hr. Animals were fed ad libitum pellets of Purina Rodent Laboratory Chow 5001 (purchased from Purina Mills Inc., St. Louis, Mo., USA) as a solid feed for experimental animals and tap water as drinking water. Mice were allowed to acclimate to new environment of the breeding room for two weeks and were then administered some pyrano-o-naphthoquinone and furano-o-naphthoquinone derivatives synthesized according to the present invention at doses of 100 mg/kg for 26 days. Observation was made on changes in body weight, blood glucose and dietary intake, with respect to a time course of administration. After administration was complete, Computed Tomography (CT) was performed to confirm changes in adipose tissue distribution of animals, changes in fat distribution of tissues in various organs, changes in sizes of adipocytes, and changes in glucose, lipid and enzyme levels in blood and liver."}, "[5]": {"test_system": "mRNAs of PGC1α, NRF1, mtTFA, COX 4 and 7", "experiment": "Gene expression of proteins involved in mitochondrial biogenesis in DIO mice", "assay_type": "in vivo, C57BL/6 mice", "details": "50 mg/kg daily oral, liver and gonadal adipose tissues, vs control group", "protocol": "β-lapachone was administered daily to diet-induced obesity (DIO) mice at a dose of 50 mg/kg via an oral route, and levels of mRNAs of peroxisome proliferator-activated receptor coactivator alpha 1 (PGC1α) (23,24), nuclear respiratory factor 1 (NRF1) (25-27), mitochondrial transcription factor (mtTFA) (25-27), and cytochrome c oxidase (COX) 4 and 7 (28,29) in the liver and gonadal adipose tissues were confirmed by real-time quantitative PCR. Proteins shown in FIG. 10 are representative enzymes responsible for regulation of biogenesis of mitochondria which plays a critical role in biosynthesis of energy in cells, and are also known to be involved in regulation of various physiological events."}, "[6]": {"test_system": "mRNAs of PPAR alpha, PPAR gamma, AOX, AMPK alpha 1 and 2, CPT1", "experiment": "Expression of genes involved in energy metabolism in DIO mice", "assay_type": "in vivo, C57BL/6 mice", "details": "50 mg/kg daily oral", "protocol": "β-lapachone was administered daily to diet-induced obesity (DIO) mice at a dose of 50 mg/kg via an oral route, and levels of transcripts of genes involved in energy metabolism in the liver and gonadal adipose tissues were measured using real-time quantitative PCR. Referring to enzymes shown in FIG. 11, PPAR alpha and gamma are enzymes responsible for transcriptional regulation of enzymes involved in energy expenditure (30,31), AMPK plays a central role in the maintenance of cell energy homeostasis by sensing the intracellular AMP/ATP ratio, and AOX catalyzes to activate oxidative phosphorylation via oxidation of acyl CoA which resides in a certain step of a lipid metabolism process (32,33). In addition, CPT1 is also an enzyme involved in energy metabolism, and is well-known as an enzyme that enables the passage of long chain acyl CoA into mitochondria, not taking a route toward synthesis of triacylglycerol (34,35). […] Increased expression levels of such genes show the possibility that β-lapachone can be as therapeutic for the treatment of energy metabolism-related diseases."}, "[7]": {"details": "DIO C57BL/6 mice, 56 days, vs control group"}, "[8]": {"details": "DIO mice, 50 mg/kg daily oral, day 56"}, "[9]": {"details": "DIO mice, 50 mg/kg daily oral, days 3, 7, 14, 28 and 56"}, "[10]": {"details": "liver and gonadal adipose tissues"}}}
{"smiles": "CC1(C)CCC2=C(O1)c1ccccc1C(=O)C2=O", "note": "[Compound 1, β-Lapachone]", "values": [{"measurement": "visceral fat and body weight (laparotomized state)", "setting": "[1]; DIO C57BL/6 mice, 56 days", "result": "conspicuous decreases in visceral fat and body weight"}, {"measurement": "EM examination on liver tissues: fat vacuoles and glycogen stores", "setting": "[1]; [7]", "result": "remarkably decreased fat vacuoles and glycogen stores"}, {"measurement": "EM examination on liver tissues: mitochondrial numbers", "setting": "[1]; [7]", "result": "significant increases in mitochondrial numbers"}, {"measurement": "decrease of accumulated fat in the liver (oil red O staining)", "setting": "[1]; [7]", "result": "≥ 90", "unit": "%"}, {"measurement": "weight changes in various organs", "setting": "[1]; [7]", "result": "significant changes in weight of tissues"}, {"measurement": "body weight", "setting": "[1]; DIO mice on high-fat diet, 50 mg/kg daily oral, 56 days, vs control group", "result": "continuous weight loss for 56 days"}, {"measurement": "dietary intake", "setting": "[1]; DIO mice, 50 mg/kg daily oral, 56 days", "result": "decreases in dietary intake for first two weeks"}, {"measurement": "size of adipocytes in brown adipose tissue (EM examination)", "setting": "[1]; [8]", "result": "remarkably decreased"}, {"measurement": "size of adipocytes in brown adipose tissues (H&E staining)", "setting": "[1]; [8]", "result": "remarkably decreased"}, {"measurement": "size of adipocytes in gonadal adipose tissues (perilipin staining)", "setting": "[1]; [8]", "result": "remarkably decreased"}, {"measurement": "blood fat and glucose levels", "setting": "[1]; [9]", "result": "significantly improved"}, {"measurement": "blood level of resistin", "setting": "[1]; [9]", "result": "significantly improved"}, {"measurement": "insulin resistance and leptin resistance", "setting": "[1]; [9]", "result": "also improved"}, {"measurement": "dietary intake/body weight", "setting": "[2]; 150 or 200 mg/kg daily oral, 56 days", "result": "notably decreased around at 10 days of administration"}, {"measurement": "body weight", "setting": "[2]; 150 or 200 mg/kg daily oral, 56 days, vs control group", "result": "continuous weight loss for 56 days"}, {"measurement": "H&E staining on liver tissue: fat vacuoles", "setting": "[2]; 56 days after administration, vs control group", "result": "almost all fat vacuoles have disappeared"}, {"measurement": "EM examination on liver tissues: mitochondrial numbers", "setting": "[2]; 56 days, vs control group", "result": "significant increases in mitochondrial numbers"}, {"measurement": "EM examination on muscle tissue of limbs: mitochondrial shape", "setting": "[2]; 56 days, vs control group", "result": "recovery of normal mitochondrial shape"}, {"measurement": "EM examination on muscle tissue of limbs: numbers of mitochondria", "setting": "[2]; 56 days, vs control group", "result": "significant increases in numbers of mitochondrial"}, {"measurement": "EM examination on liver tissues: fat vacuoles and glycogen stores", "setting": "[3]", "result": "remarkably decreased fat vacuoles and glycogen stores"}, {"measurement": "Cholesterol", "setting": "[4]", "result": 121}, {"measurement": "GOT", "setting": "[4]", "result": 42}, {"measurement": "GPT", "setting": "[4]", "result": 39}, {"measurement": "Glucose", "setting": "[4]", "result": 120}, {"measurement": "Triglyceride", "setting": "[4]", "result": 143}, {"measurement": "COX 4 mRNA level", "setting": "[5]", "result": "increased levels of mRNAs"}, {"measurement": "COX 7 mRNA level", "setting": "[5]", "result": "increased levels of mRNAs"}, {"measurement": "NRF1 mRNA level", "setting": "[5]", "result": "increased levels of mRNAs"}, {"measurement": "PGC1α mRNA level", "setting": "[5]", "result": "increased levels of mRNAs"}, {"measurement": "mtTFA mRNA level", "setting": "[5]", "result": "increased levels of mRNAs"}, {"measurement": "PPAR alpha mRNA level", "setting": "[6]; [10]", "result": "not changed"}, {"measurement": "PPAR gamma mRNA level", "setting": "[6]; [10]", "result": "about two-fold increases"}, {"measurement": "AMPK alpha 1 mRNA level", "setting": "[6]; vs control group", "result": "increased levels in mRNAs"}, {"measurement": "AMPK alpha 2 mRNA level", "setting": "[6]; vs control group", "result": "increased levels in mRNAs"}, {"measurement": "acyl CoA oxidase (AOX) mRNA level", "setting": "[6]; vs control group", "result": "increased levels in mRNAs"}, {"measurement": "carnitine palmitoyltransferase 1 mRNA level", "setting": "[6]; vs control group", "result": "increased levels in mRNAs"}]}
